# According to patent publication US10780092B2, “Fused pyrazine derivatives useful as soluble guanylate cyclase stimulators” (Merck Sharp & Dohme Corp., priority 2016, dated 2020):
# pEC50, pKi: −log10 of the molar value.
# Key:
# [1] = target: human recombinant sGC enzyme (Homo sapiens (Human), UniProt Q02108+Q02153); test: SEC competition binding assay with [3H] Compound B radioligand; conditions: displacement of 1.6 nM [3H] Compound B, 24 h at 37° C.
# How it was run: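 Competition format: [3H] Compound B (1.6 nM) displaced from human recombinant sGC over 24 h at 37° C. in triethanolamine pH 7.4 buffer with MgCl2, BSA, DTT, 300 μM DETA/NO and 400 μM GTP (1% DMSO). Gel-filtration eluates counted by liquid scintillation; 1 μM Compound B defined non-specific binding; Ki by one-site fit.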
# [2] = target: sGC α1/β1 heterodimer (Homo sapiens (Human), UniProt Q02108+Q02153); test: Cell-based sGC functional assay (CASA assay), cGMP by HTRF; conditions: CHO-K1/sGC cells; for Emax: CHO-K1, cGMP production as percentage of maximum of compound A (set to 100%), read-out: % Activation; for pEC50: inflection point of cGMP production, 4P fit, read-out: IP
# How it was run: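 cGMP made in CHO-K1/sGC (human α1/β1) cells is read by HTRF after compound treatment for 1 hr at 37° C, following 30 min at 25° C with or without 1 μM DETA-NO; IBMX 0.5 mM present. Values are % of standard compound maximum; 4P fit.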
Compound,pKi [1],Emax [2],pEC50 [2],% Activation ([2]; cGMP production as percentage of maximum of compound A (set to 100%))
"CC1(c2ccc(Cl)c(O)c2)C(=O)Nc2nc(-c3cn4ccnc4c(Cc4ccc(F)cc4)n3)nc(N3CCC(F)(F)CC3)c21 (stereo not drawn) [Example 136-A, 5-(4-Chloro-3-hydroxy-phenyl)-4-(4,4-difluoro-piperidin-1-yl)-2-{8-[(4-fluorophenyl)methyl]-imidazo[1,2-a]pyrazin-6-yl}-5-methyl-5,7-dihydro-6H-pyrrolo[2,3-d]-pyrimidin-6-one]",8.81,66%,6.29,–
"CC1(c2ccc(O)c(Cl)c2)C(=O)Nc2nc(-c3cn4ccnc4c(CCC4CCCCC4)n3)nc(N)c21 (stereo not drawn) [Example 77-B, 4-Amino-5-(3-chloro-4-hydroxyphenyl)-2-(8-(2-cyclohexylethyl)imidazo[1,2-a]pyrazin-6-yl)-5-methyl-5,7-dihydro-6H-pyrrolo[2,3-d]pyrimidin-6-one]",8.06,99%,6.19,–
"CCCCc1nc(-c2nc(N)c3c(n2)NC(=O)C3(C)c2ccc(O)c(F)c2)cn2ncnc12 (stereo not drawn) [Example 71-B, 4-Amino-2-(8-butyl-[1,2,4]triazolo[1,5-a]pyrazin-6-yl)-5-(3-fluoro-4-hydroxyphenyl)-5-methyl-5,7-dihydro-6H-pyrrolo[2,3-d]pyrimidin-6-one]",8.39,81%,7.52,–
"CC1(c2ccc(Cl)c(O)c2)C(=O)Nc2nc(-c3cn4ccnc4c(CC4CCC(F)(F)CC4)n3)nc(N)c21 (stereo not drawn) [Example 95-A, 4-Amino-5-(4-chloro-3-hydroxyphenyl)-2-(8-((4,4-difluorocyclohexyl)methyl)imidazo [1,2-a]pyrazin-6-yl)-5-methyl-5,7-dihydro-6H-pyrrolo[2,3-d]pyrimidin-6-one]",7.84,96%,5.74,–
"CC1(c2ccc(Cl)c(O)c2Cl)C(=O)Nc2nc(-c3cn4ccnc4c(CC4CCCCC4)n3)nc(N)c21 (stereo not drawn) [Example 69-A, 4-Amino-2-(8-(cyclohexylmethyl)imidazo[1,2-a]pyrazin-6-yl)-5-(2,4-dichloro-3-hydroxyphenyl)-5-methyl-5,7-dihydro-6H-pyrrolo[2,3-d]pyrimidin-6-one]",8.46,108%,5.86,–
"CC(C)CCc1nc(-c2nc(N)c3c(n2)NC(=O)C3(C)c2ccc(O)c(F)c2)cn2ccnc12 (stereo not drawn) [Example 54-B, 4-Amino-5-(3-fluoro-4-hydroxyphenyl)-2-(8-isopentylimidazo[1,2-a]pyrazin-6-yl)-5-methyl-5,7-dihydro-6H-pyrrolo[2,3-d]pyrimidin-6-one]",8.97,72%,7.38,–
"CC(C)CCc1nc(-c2nc(N)c3c(n2)NC(=O)C3(C)c2ccc(O)cc2)cn2ccnc12 (stereo not drawn) [Example 58-B, 4-Amino-5-(4-hydroxyphenyl)-2-(8-isopentylimidazo[1,2-a]pyrazin-6-yl)-5-methyl-5,7-dihydro-6H-pyrrolo[2,3-d]pyrimidin-6-one]",8.81,121%,6.79,–
"CC1(c2cccc(O)c2)C(=O)Nc2nc(-c3cn4ccnc4c(Cc4cc(F)cc(F)c4)n3)nc(N)c21 (stereo not drawn) [Example 48-B, 4-Amino-2-{8-[(3,5-difluorophenyl)methyl]imidazo[1,2-a]pyrazin-6-yl}-5-(3-hydroxyphenyl)-5-methyl-5,7-dihydro-6H-pyrrolo[2,3-d]pyrimidin-6-one]",9.14,114%,6.70,–
"CC1(c2cc(O)c(C#N)c(F)c2)C(=O)Nc2nc(-c3cn4ccnc4c(Cc4cc(F)ccc4F)n3)nc(N)c21 (stereo not drawn) [Example 101-B, 4-(4-Amino-2-{8-[(2,5-difluorophenyl)methyl]imidazo[1,2-a]pyrazin-6-yl}-5-methyl-6-oxo-6,7-dihydro-5H-pyrrolo[2,3-d]pyrimidin-5-yl)-2-fluoro-6-hydroxybenzonitrile]",9.79,53%,6.55,–
"CCCCc1nc(-c2nc(N)c3c(n2)NC(=O)C3(C)c2cccc(O)c2)cn2ncnc12 (stereo not drawn) [Example 68-B, 4-Amino-2-(8-butyl-[1,2,4]triazolo[1,5-a]pyrazin-6-yl)-5-(3-hydroxyphenyl)-5-methyl-5,7-dihydro-6H-pyrrolo[2,3-d]pyrimidin-6-one]",8.53,96%,7.34,–
"CC1(c2ccc(Cl)c(O)c2)C(=O)Nc2nc(-c3cn4ncnc4c(CCC(F)(F)C(F)(F)F)n3)nc(NCC(O)C(F)(F)F)c21 (single isomer, unassigned) [Example 133-AB, 5-(4-Chloro-3-hydroxy-phenyl)-5-methyl-2-(8-(3,3,4,4,4-pentafluoro-butyl)-[1,2,4]triazolo-[1,5-a]pyrazin-6-yl)-4-[(3,3,3-trifluoro-2-hydroxypropyl)amino]-5,7-dihydro-6H-pyrrolo-[2,3-d]pyrimidin-6-one]",8.03,–,5.47,48%
"CC1(c2ccc(Cl)c(O)c2)C(=O)Nc2nc(-c3cn4ncnc4c(CCCCF)n3)nc(N)c21 (stereo not drawn) [Example 106-A, 4-Amino-5-(4-chloro-3-hydroxyphenyl)-2-(8-(4-fluorobutyl)-[1,2,4]triazolo[1,5-a]pyrazin-6-yl)-5-methyl-5,7-dihydro-6H-pyrrolo[2,3-d]pyrimidin-6-one]",8.74,81%,6.04,–

# More lines, in order of rising pKi [1], values ahead:
pKi [1],Emax [2],pEC50 [2],% Activation ([2]; cGMP production as percentage of maximum of compound A (set to 100%)),Compound
8.01,118%,5.00,–,"Cc1cccc(Cc2nc(-c3nc(N)c4c(n3)NC(=O)C4(C)c3ccc(O)c(F)c3)cn3ccnc23)c1 (stereo not drawn) [Example 127-B, 4-Amino-5-(3-fluoro-4-hydroxyphenyl)-5-methyl-2-{8-[(3-methylphenyl)-methyl]imidazo[1,2-a]-pyrazin-6-yl}-5,7-dihydro-6H-pyrrolo[2,3-d]-pyrimidin-6-one]"
8.22,81%,6.16,–,"CC1(c2ncc(Cl)c(O)c2Cl)C(=O)Nc2nc(-c3cn4ccnc4c(Cc4cc(F)cc(F)c4)n3)nc(N)c21 (stereo not drawn) [Example 73-A, 4-Amino-5-(3,5-dichloro-4-hydroxypyridin-2-yl)-2-{8-[(3,5-difluorophenyl)methyl]imidazo[1,2-a]pyrazin-6-yl}-5-methyl-5,7-dihydro-6H-pyrrolo[2,3-d]pyrimidin-6-one]"
8.34,84%,5.46,–,"CCCCc1nc(-c2nc(N)c3c(n2)NC(=O)C3(C)c2cc(O)c(Cl)cn2)cn2ccnc12 (stereo not drawn) [Example 72-B, 4-Amino-2-(8-butylimidazo[1,2-a]pyrazin-6-yl)-5-(5-chloro-4-hydroxypyridin-2-yl)-5-methyl-5,7-dihydro-6H-pyrrolo[2,3-d]pyrimidin-6-one]"
8.70,84%,5.72,–,"CC1(c2ccc(F)c(O)c2)C(=O)Nc2nc(-c3cn4ccnc4c(CCC(F)(F)C(F)(F)F)n3)nc(N3CC(O)(C(F)(F)F)C3)c21 (stereo not drawn) [Example 129-B, 5-(4-Fluoro-3-hydroxyphenyl)-4-(3-hydroxy-3-(trifluoromethyl)azetidin-1-yl)-5-methyl-2-(8-(3,3,4,4,4-pentafluorobutyl)imidazo[1,2-a]pyrazin-6-yl)-5,7-dihydro-6H-pyrrolo[2,3-d]pyrimidin-6-one]"
9.08,127%,6.09,–,"CC1(c2ccc(O)c(Cl)c2)C(=O)Nc2nc(-c3cn4ccnc4c(CC4CCCCC4)n3)nc(N)c21 (stereo not drawn) [Example 89-B, 4-Amino-5-(3-chloro-4-hydroxyphenyl)-2-(8-(cyclohexylmethyl)imidazo[1,2-a]pyrazin-6-yl)-5-methyl-5,7-dihydro-6H-pyrrolo[2,3-d]pyrimidin-6-one]"
9.31,136%,6.23,–,"CC1(c2ccc(O)c(F)c2)C(=O)Nc2nc(-c3cn4ncnc4c(Cc4ccc(F)cc4)n3)nc(N)c21 (stereo not drawn) [Example 41-B, 4-Amino-5-(3-fluoro-4-hydroxyphenyl)-2-{8-[(4-fluorophenyl)methyl]-[1,2,4]triazolo[1,5-a]pyrazin-6-yl}-5-methyl-5,7-dihydro-6H-pyrrolo[2,3-d]pyrimidin-6-one]"
9.70,141%,7.12,–,"CC1(c2ccc(Cl)c(O)c2)C(=O)Nc2nc(-c3cn4ccnc4c(Cc4ccc(F)cc4F)n3)nc(N)c21 (stereo not drawn) [Example 91-A, 4-Amino-5-(4-chloro-3-hydroxyphenyl)-2-{8-[(2,4-difluorophenyl)methyl]imidazo[1,2-a]pyrazin-6-yl}-5-methyl-5,7-dihydro-6H-pyrrolo[2,3-d]pyrimidin-6-one]"
9.76,78%,6.64,–,"CC1(c2cc(O)c(Cl)cn2)C(=O)Nc2nc(-c3cn4ccnc4c(Cc4cc(F)cc(F)c4F)n3)nc(N)c21 (stereo not drawn) [Example 103-B, 4-Amino-5-(5-chloro-4-hydroxypyridin-2-yl)-5-methyl-2-{8-[(2,3,5-trifluorophenyl)methyl]imidazo[1,2-a]pyrazin-6-yl}-5,7-dihydro-6H-pyrrolo[2,3-d]pyrimidin-6-one]"
10.01,102%,6.66,–,"CC1(c2cc(O)c(Cl)c(F)c2)C(=O)Nc2nc(-c3cn4ccnc4c(Cc4cc(F)cc(F)c4F)n3)nc(N)c21 (stereo not drawn) [Example 7-B, 4-Amino-5-(4-chloro-3-fluoro-5-hydroxyphenyl)-5-methyl-2-{8-[(2,3,5-trifluorophenyl)methyl]imidazo[1,2-a]pyrazin-6-yl}-5,7-dihydro-6H-pyrrolo[2,3-d]pyrimidin-6-one]"
